Like-named read-outs stand apart in the source and are kept apart here.

Data on 19 molecules can be found in patent publication US20240343740A1, “MACROCYCLIC GLUCAGON-LIKE PEPTIDE 1 RECEPTOR AGONISTS” (Eli Lilly and Company, priority 2021, published 2024).

For data set [1] the following is noted: cc_pd bond.
Data set [2] has as its target T1, human GLP-1R (Homo sapiens, UniProt P43220). Nature of the data set: Human GLP-1 Receptor HEK293 cell cAMP assay, 581 fmol/mg GLP-1R expression density. Set-up: expressed in transfected cells; host or cells: HEK293 clonal cell line. The data set is classed as cell-based. To be noted: HEK293 cell line with 581 fmol/mg expression density of GLP-1R; for EC50: geometric mean, read-out: EC50 nM (SEM, n), intracellular cAMP response, relative EC50; for Emax: read-out: Emax % (SEM, n), intracellular cAMP response. The method in brief:
(§1)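 HEK293 clonal lines expressing human GLP-1R, 20-point compound curves, 30 min at 37° C in DMEM with 0.1% casein, 250 μM IBMX, 0.5% DMSO. cAMP by HTRF, converted via standard curve to % of maximal human GLP-1(7-36)NH2 response; relative EC50 and Emax from four-parameter logistic fit.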
On the technique in general: Changes in cAMP serve as a functional read-out for many G protein-coupled receptors.
Target sequence in this assay (P43220 24-463): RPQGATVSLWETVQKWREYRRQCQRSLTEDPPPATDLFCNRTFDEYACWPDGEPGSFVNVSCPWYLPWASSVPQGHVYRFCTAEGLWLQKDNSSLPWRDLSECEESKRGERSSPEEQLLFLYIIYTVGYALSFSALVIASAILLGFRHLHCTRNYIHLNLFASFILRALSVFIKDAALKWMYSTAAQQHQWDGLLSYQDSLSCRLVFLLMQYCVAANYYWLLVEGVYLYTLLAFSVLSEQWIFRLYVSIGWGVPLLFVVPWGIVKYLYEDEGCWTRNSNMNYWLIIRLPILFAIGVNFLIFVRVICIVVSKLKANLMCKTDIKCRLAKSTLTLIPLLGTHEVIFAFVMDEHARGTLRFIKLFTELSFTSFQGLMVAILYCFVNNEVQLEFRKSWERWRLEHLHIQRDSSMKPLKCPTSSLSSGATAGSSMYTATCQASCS

Data set [3] concerns the target T1, human GLP-1R. The data set is described as follows: GLP-1R CHO cell β-arrestin recruitment assay (PathHunter). The data set is classed as cell-based. Also noted: host or cells: CHO-K1. As for the experimental part:
GLP-1R CHO Cell β-Arrestin Recruitment Assay
Activated G-protein coupled receptors can interact with the β-arrestin family of signaling proteins. The potency of compounds for GLP-1R induced arrestin recruitment is determined using the PathHunter Enzyme Fragment Complementation approach substantially as described (von Degenfeld et al., FASEB J., 2007 (14):3819-26 and Hamdouchi et al., J. Med Chem., 2016 59(24):10891-10916). CHO-K1 cells expressing Pro-Link-tagged Human GLP-1R and enzyme-acceptor-tagged β-arrestin-2 may be obtained from DiscoveRx and prepared as assay-ready frozen cells. Test compounds are solubilized in DMSO and serial dilutions are performed using the Echo acoustic dispenser (LabCyte). Assay media is the PathHunter Cell Assay Buffer (DiscoveRx) containing 0.1% w/v hydrolyzed Casein (Sigma). 100 nL of test compound solution is dispensed into 10 μL of assay media in a 384 well plate and then 10 μL of cells in assay media are added to give 5000 cells per well. Plates are incubated for 90 min in a 37° C./5% CO2 incubator and 10 μL of PathHunter detection reagent is added (DiscoveRx) and plates are incubated at RT for 60 min. Luminescence signal is measured. Compound concentration-response curves fit to a four-parameter logistic model to calculate potency as an EC50 and percent top (Emax). Data normalization to % stimulation is performed using DMSO and GLP-1(7-36) as minimum and maximum controls (Campbell et al, Assay Guidance Manual 2017).
Target sequence in this assay (P43220 24-463): as above
Target sequence in this assay (P32121 whole entry partner): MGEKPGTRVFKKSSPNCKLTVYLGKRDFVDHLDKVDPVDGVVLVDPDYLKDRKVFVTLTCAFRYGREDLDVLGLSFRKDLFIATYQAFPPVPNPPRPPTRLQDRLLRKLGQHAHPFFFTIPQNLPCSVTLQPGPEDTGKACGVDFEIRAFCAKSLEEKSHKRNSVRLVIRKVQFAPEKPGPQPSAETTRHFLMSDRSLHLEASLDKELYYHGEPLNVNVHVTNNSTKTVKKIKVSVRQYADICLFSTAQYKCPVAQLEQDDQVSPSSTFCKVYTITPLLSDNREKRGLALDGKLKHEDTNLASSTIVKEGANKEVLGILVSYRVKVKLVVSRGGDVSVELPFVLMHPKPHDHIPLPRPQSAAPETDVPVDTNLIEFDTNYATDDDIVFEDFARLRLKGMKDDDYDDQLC

Data set [4] deals with T1, human GLP-1R. Nature of the data set: Human GLP-1 Receptor HEK293 cell cAMP assay, 104 fmol/mg GLP-1R expression density. The data set is classed as cell-based. The note with it: HEK293 cell line with 104 fmol/mg expression density of GLP-1R; for EC50: geometric mean, read-out: EC50 nM (SEM, n), intracellular cAMP response, relative EC50; for Emax: read-out: Emax % (SEM, n), intracellular cAMP response. Set-up: expressed in transfected cells; host or cells: HEK293 clonal cell line. The method in brief:
as §1
Target sequence in this assay (P43220 24-463): as the sequence (P43220 24-463) above

Where [5] appears, read: percent of maximal response to GLP-1(7-36)NH2, arithmetic mean.

`CCOC(=O)Cc1cc(F)c2cc1CCOCc1cc(C#N)ccc1COc1cccc-2n1` returned a ring closure, isolated yield in data set [1] (from CCOC(=O)Cc1cc(F)c(B2OC(C)(C)C(C)(C)O2)cc1CCOCc1cc(C#N)ccc1COc1cccc(Cl)n1, 14-membered ring, XPhos Pd G2/K3PO4, THF/water, 25.0 mM, 70.0 °C, 0.5 h) of 34%.

In turn, `CCOC(=O)Cc1cc(F)c2cc1CCOCc1cc(ccc1Cl)COc1cccc-2n1` yielded a ring closure, isolated yield in data set [1] (from CCOC(=O)Cc1cc(F)c(B2OC(C)(C)C(C)(C)O2)cc1CCOCc1cc(COc2cccc(Cl)n2)ccc1Cl, 15-membered ring, XPhos Pd G2/K3PO4, THF/water, 27.0 mM, 60.0 °C, 1.5 h) of 20%.

In the case of `CCOC(=O)Cc1cc(F)c2cc1CCOc1cc(C#N)ccc1COc1cccc-2n1`, in data set [1] (from CCOC(=O)Cc1cc(F)c(Br)cc1CCOc1cc(C#N)ccc1COc1cccc(Br)n1, 13-membered ring, Me6Sn2/Pd(dppf)Cl2, 1,4-dioxane, 50.0 mM, 100.0 °C, 3.0 h), the ring closure, isolated yield is 41%.

As to `CCOC(=O)Cc1cc(F)c2cc1COCCc1cc(Cl)cc(F)c1COc1cccc-2n1`, the ring closure, isolated yield in data set [1] (from CCOC(=O)Cc1cc(F)c(Br)cc1COCCc1cc(Cl)cc(F)c1COc1cccc(Cl)n1, 14-membered ring, B2pin2/KOPiv/XPhos Pd G2, then K3PO4, THF/water, 24.0 mM, 55.0 °C, 6.0 h, 2 steps) stood at 27%.

Take `CCOC(=O)Cc1cc(F)c2cc1COCc1cc(Cl)ccc1COc1cccc-2n1`: in data set [1] (from CCOC(=O)Cc1cc(F)c(Br)cc1COCc1cc(Cl)ccc1COc1cccc(Cl)n1, 13-membered ring, B2neo2/KOPiv/XPhos Pd G2, then K3PO4, THF, then THF/water, 25.0 mM, 55.0 °C, 5.25 h, 2 steps), the ring closure, isolated yield was 32%.

`CCOC(=O)Cc1cc(F)c2cc1OCCCc1cc(C#N)ccc1CNc1cccc-2n1` yielded a ring closure, isolated yield in data set [1] (from CCOC(=O)Cc1cc(F)c(B2OCC(C)(C)CO2)cc1OCCCc1cc(C#N)ccc1CNc1cccc(Br)n1, 14-membered ring, PdCl2(dtbpf)/K3PO4, 1,4-dioxane/water, 43.0 mM, 70.0 °C, 2.0 h) of 49%.

Regarding `CCOC(=O)Cc1cc(F)c2cc1OCCCc1cc(C#N)ccc1COc1cccc-2n1`, the ring closure, isolated yield in data set [1] (from CCOC(=O)Cc1cc(F)c(Br)cc1OCCCc1cc(C#N)ccc1COc1cccc(Br)n1, 14-membered ring, Me6Sn2/Pd(PPh3)4, 1,4-dioxane, 23.0 mM, 90.0 °C, 60.0 h) was found to be 47%.

`CCOC(=O)Cc1cc(F)c2cc1OCCCc1cc(C#N)cnc1COc1cccc-2n1`: the ring closure, isolated yield in data set [1] (from CCOC(=O)Cc1cc(F)c(Br)cc1OCCCc1cc(C#N)cnc1COc1cccc(Br)n1, 14-membered ring, Me6Sn2/CsF/XPhos Pd G2, 1,4-dioxane, 22.0 mM, 100.0 °C, 18.0 h) stood at 49%.

Molecule `CCOC(=O)Cc1cc(F)c2cc1OCCCc1cc(ccc1C#N)COc1cccc-2n1` registered a ring closure, isolated yield in data set [1] (from CCOC(=O)Cc1cc(F)c(B2OC(C)(C)C(C)(C)O2)cc1OCCCc1cc(COc2cccc(Br)n2)ccc1C#N, 15-membered ring, PdCl2(dtbpf)/K3PO4, 1,4-dioxane/water, 27.0 mM, 50.0 °C, 0.25 h) of 38%.

The molecule `CCOC(=O)Cc1cc(F)c2cc1OCCOc1cc(C#N)ccc1COc1cccc-2n1` yielded a ring closure, isolated yield in data set [1] (from CCOC(=O)Cc1cc(F)c(Br)cc1OCCOc1cc(C#N)ccc1COc1cccc(Br)n1, 14-membered ring, B2pin2/KOAc/Pd(dppf)Cl2, then PdCl2/XPhos/K3PO4, THF/water, 8.9 mM, 45.0 °C, 16.0 h, 2 steps) of 32%.

Molecule `CCOC(=O)Cc1ccc2cc1COCC(F)(F)c1cc(C#N)ccc1COc1cccc-2n1` registered a ring closure, isolated yield in data set [1] (from CCOC(=O)Cc1ccc(Br)cc1COCC(F)(F)c1cc(C#N)ccc1COc1cccc(Br)n1, 14-membered ring, B2pin2/KOAc/Pd(dppf)Cl2, then XPhos Pd G2/K3PO4, 1,4-dioxane/water, 55.0 mM, 60.0 °C, 2.0 h, 2 steps) of 21%.

Regarding `COC(=O)Cc1ccc2cc1COCCc1cc(C#N)ccc1COc1ccnc-2n1`, the ring closure, isolated yield in data set [1] (from COC(=O)Cc1ccc(B2OC(C)(C)C(C)(C)O2)cc1COCCc1cc(C#N)ccc1COc1ccnc(Cl)n1, 14-membered ring, XPhos Pd G2/K3PO4, THF/water, 36.0 mM, 50.0 °C, 6.0 h) was determined as 22%.

`COC(=O)Cc1ccc2cc1COCCc1cc(ccc1C#N)COc1cccc-2n1` yielded a ring closure, isolated yield in data set [1] (from COC(=O)Cc1ccc(B2OC(C)(C)C(C)(C)O2)cc1COCCc1cc(COc2cccc(Cl)n2)ccc1C#N, 15-membered ring, XPhos Pd(crotyl)Cl/K3PO4, THF/water, 33.0 mM, 50.0 °C, 0.83 h) of 61%.

Regarding `COC(=O)Cc1ccc2cc1OCCCc1cc(C#N)ccc1COc1cccc-2n1`, in data set [1] (from COC(=O)Cc1ccc(B2OC(C)(C)C(C)(C)O2)cc1OCCCc1cc(C#N)ccc1COc1cccc(Br)n1, 14-membered ring, XPhos Pd G2/K3PO4, THF/water, 57.0 mM, 45.0 °C, 2.25 h), the ring closure, isolated yield is 82%.

In the case of `COC(=O)Cc1ccc2cc1OCCCc1cc(Cl)ccc1COc1cccc-2n1`, the ring closure, isolated yield in data set [1] (from COC(=O)Cc1ccc(B2OC(C)(C)C(C)(C)O2)cc1OCCCc1cc(Cl)ccc1COc1cccc(Br)n1, 14-membered ring, XPhos Pd G2/K3PO4, THF/water, 9.2 mM, 40.0 °C, 15.0 h) is 74%.

As a reminder, the EC50 is the concentration giving half of the maximal effect. One may read the Emax as the size of the effect at its maximum, as opposed to the concentration needed. For `N#Cc1ccc2c(c1)CCCOc1cc(c(F)cc1Cc1nc3ccc(C(=O)O)cc3n1C[C@@H]1CCO1)-c1cccc(n1)OC2` [Example 1, (S)-2-((5^4-Cyano-1^6-fluoro-3,9-dioxa-2(2,6)-pyridina-1(1,3),5(1,2)-dibenzenacyclononaphane-1^4-yl)methyl)-1-(oxetan-2-ylmethyl)-1H-benzo[d]imidazole-6-carboxylic acid], the EC50 on human GLP-1R [2] came out at 19.8 nM; on human GLP-1R [3] (CHO-K1 cells expressing Pro-Link-tagged Human GLP-1R and enzyme-acceptor-tagged β-arrestin-2, read-out: EC50 nM (SEM, n), hGLP1R induced β-Arrestin-2 recruitment relative EC50) it was 213 nM; at human GLP-1R [4], 59.7 nM. Besides, the maximal response (Emax) came out at 95% at human GLP-1R [2] (setting [5]); 42.9% on human GLP-1R [3] (CHO-K1 cells, % stimulation with DMSO and GLP-1(7-36) as minimum and maximum controls, read-out: Emax % (SEM, n), hGLP1R induced β-Arrestin-2 recruitment); 71% at human GLP-1R [4] (setting [5]).

Regarding `Cn1ccc(-c2ccc3c(c2)CCCOc2cc(ccc2Cc2nc4ccc(C(=O)O)cc4n2C[C@@H]2CCO2)-c2cccc(n2)OC3)cc1=O` [Example 79, (S)-2-((5^4-(1-Methyl-2-oxo-1,2-dihydropyridin-4-yl)-3,9-dioxa-2(2,6)-pyridina-1(1,3),5(1,2)-dibenzenacyclononaphane-1^4-yl)methyl)-1-(oxetan-2-ylmethyl)-1H-benzo[d]imidazole-6-carboxylic acid], the EC50 on human GLP-1R [2] turned out to be 369 nM; at human GLP-1R [4], 648 nM. For the same molecule, the maximal effect (Emax) on human GLP-1R [2] (setting [5]) amounted to 34.7%; on human GLP-1R [4] (setting [5]), 9.53%.

In the case of `O=C(O)c1ccc2nc(Cc3ccc4cc3OCCCc3cc(-c5ccc(=O)[nH]c5)ccc3COc3cccc-4n3)n(C[C@@H]3CCO3)c2c1` [Example 80, (S)-1-(Oxetan-2-ylmethyl)-2-((5^4-(6-oxo-1,6-dihydropyridin-3-yl)-3,9-dioxa-2(2,6)-pyridina-1(1,3),5(1,2)-dibenzenacyclononaphane-1^4-yl)methyl)-1H-benzo[d]imidazole-6-carboxylic acid], the half-maximal effective concentration (EC50) on human GLP-1R [2] turned out to be 130 nM; at human GLP-1R [4], 303 nM. Further, the maximal effect (Emax) on human GLP-1R [2] (setting [5]) worked out at 84.1%; at human GLP-1R [4] (setting [5]), 56%.

Take “(S)-2-((5^4-Cyano-1^6,2^3-difluoro-3,8-dioxa-2(2,6)-pyridina-1(1,3),5(1,2)-dibenzenacyclononaphane-1^4-yl)methyl)-4-(2-methoxyethoxy)-1-(oxetan-2-ylmethyl)-1H-benzo[d]imidazole-6-carboxylic acid [Example 60]”: the EC50 was 0.938 nM at human GLP-1R [2] and 2.99 nM at human GLP-1R [4]. Also, the “Emax % (SEM, n), intracellular cAMP response” value is given as 109% on human GLP-1R [2] (setting [5]) and 87.9% on human GLP-1R [4] (setting [5]).
